Measurements: patent US9018244B2, “Benzopyran compounds, compositions and uses thereof” (Olema Pharmaceuticals, Inc., priority 2011, dated 2015)

Columns and labels:
[1] = Single dose oral pharmacokinetics study in female rats; format: in vivo, female Sprague Dawley rats
Description: The oral bioavailabilty in rats of OP-1038 was determined in the following study. 3 rats (female Sprague Dawley, non-fasted) were dosed by oral gavage (5 mg/kg body weight) in 0.5% CMC in water with a comparison to intravenous dosing (3 mg/kg body weight). Plasma was collected at the following hourly time points from rats in both groups (0, 0.08, 1.0, 2.0, 4.0, 8.0, 16.0, 24.0, 48.0 and 96.0 hours post dosing). Plasma concentrations of OP-1038 were determined by HPLC.

[2] = test system: MCF-7 HER2/neu Clone 18 xenograft; test: Mammary tumor xenograft study; format: in vivo, ovariectomized athymic nude mice; conditions: 100 mg/kg twice daily by oral gavage, mice implanted with estrogen pellets
Text: FIG. 13. […] A) Percent change in tumor volume of human MCF-7 HER2/neu clone 18 xenografts in ovariectomized athymic nude mice implanted with estrogen pellets and treated with either tamoxifen (by oral gavage), fulvestrant (Faslodex) by s.c. injection, or OP-1074 (by oral gavage). B) Weights of the animals treated as above. C) Waterfall plot of final tumor volumes compared with volumes at the start of treatment.
The purpose of this study is to examine the ability of OP-1074, to slow or shrink a tamoxifen resistant tumor (MCF-7 HER2/neu Clone 18) xenograft growing on ovariectomized athymic nude mice under stimulation from exogenous estrogen. Clone 18 cells grown in culture are implanted along with 0.18 mg estradiol/90 day release pellets (Innovative Research, Sarasota Fla.) into 55 mice to initiate the experiment. When the tumors have reached 250 cubic millimeters the mice are divided into four groups of 10 mice each and dosing initiated. The four groups are:
1) No hormonal treatment—this group receives daily gavage with vehicle.
2) Tamoxifen citrate 100 mg/kg daily by oral gavage in vehicle.
3) Faslodex 100 mg/kg delivered daily by subcutaneous injection.
4) OP-1074 100 mg/kg twice daily by oral gavage in vehicle with the exception of two weekends in which dosing was once daily.

[3] = Sprague-Dawley, rat, plasma, Oral, 5.00 mg/kg, female S.D. rats

| Compound | AUCextrap ([1]; Oral, 5.00 mg/kg, female S.D. rats) [%] | bioavailability ([1]; Sprague-Dawley, rat, plasma, Oral 5 mg/kg compared to intravenous 3 mg/kg, female S.D. rats, read-out: F % (Oral bioavailability)) [%] | Cmax ([1]; Sprague-Dawley, rat, plasma, Oral, 5.00 mg/kg, 0.5% CMC, female S.D. rats) [ng/mL] | AUC(0-inf) [1, 3] [ng·h/mL] | MRT last [1, 3] [h] | Tmax [1, 3] [h] | half-life [1, 3] [h] | AUC(0-t) ([1]; Sprague-Dawley, rat, plasma, Oral, 5.00 mg/kg, female S.D. rats, read-out: AUClast (0 to 96 h)) [ng·h/mL] | Oral bioavailability (in words) ([1]; oral gavage 5 mg/kg in rats) | Tumor volume change of xenografts [2] |
| --- | --- | --- | --- | --- | --- | --- | --- | --- | --- | --- |
| CC1=C(c2ccc(O)cc2)C(c2ccc(OCCN3CC[C@@H](C)C3)cc2)Oc2cc(O)ccc21 (stereo partly drawn) [OP-1038, 3-(4-hydroxyphenyl)-4-methyl-2-(4-{2-[(3R)-3-methylpyrrolidin-1-yl]ethoxy}phenyl)-2H-chromen-7-ol] | 10.1 ± 6.26 | 18.9 | 24.8 ± 3 | 671 ± 44.8 | 25.9 ± 3.37 | 2.33 ± 1.53 | 28.5 ± 11.6 | 603 ± 46.7 | orally bioavailable |  |
| CC1=C(c2ccc(O)cc2)[C@H](c2ccc(OCCN3CC[C@@H](C)C3)cc2)Oc2cc(O)ccc21 [OP-1074, (2S)-3-(4-hydroxyphenyl)-4-methyl-2-(4-{2-[(3R)-3-methylpyrrolidin-1-yl]ethoxy}phenyl)-2H-chromen-7-ol] |  |  |  |  |  |  |  |  |  | rapid and complete regression |
